Test results: patent US7528148B2, “Pyrazolo[3,4-B]pyridine compounds, and their use as phosphodiesterase inhibitors” (Glaxo Group Limited, priority 2002, dated 2009)

Target: T1, PDE4B (human recombinant) (Homo sapiens, UniProt Q07343)
T1 construct: made in house; host or cells: Saccharomyces cerevisiae strain GL62 (PDE-deficient)
Test: PDE4B inhibition, radioactive SPA or IMAP fluorescence polarisation (FP) assay
Format: biochemical
Details: one reading or average of ca. 2-6 readings, accurate only to about ±0.5 log unit, read-out: PDE4B pIC50 (±about 0.5) (converted)
Source text: Human recombinant PDE4B, in particular the 2B splice variant thereof (HSPDE4B2B), is disclosed in WO 94/20079 and also M. M. McLaughlin et al., “A low Km, rolipram-sensitive, cAMP-specific phosphodiesterase from human brain: cloning and expression of cDNA, biochemical characterisation of recombinant protein, and tissue distribution of mRNA”, J. Biol. Chem., 1993, 268, 6470-6476. Human recombinant PDE4B was expressed in the PDE-deficient yeast Saccharomyces cerevisiae strain GL62. 100,000×g supernatant fractions of yeast cell lysates were used for PDE4B assays and inhibitor studies.
The ability of compounds to inhibit catalytic activity at PDE4B or 4D (human recombinant), PDE3 (from bovine aorta) or PDE5 (human recombinant) or PDE6 (from bovine retina) was determined by Scintillation Proximity Assay (SPA) in 96-well format. Test compounds (preferably as a solution in DMSO, e.g. about 2 microlitre (ul) volume of DMSO solution) were preincubated at ambient temperature (room temperature, e.g. 19-23° C.) in Wallac Isoplates (code 1450-514) with PDE enzyme in 50 mM Tris-HCl buffer pH 7.5, 8.3 mM MgCl2, 1.7 mM EGTA, 0.05% (w/v) bovine serum albumin for 10-30 minutes (usually 30 minutes). The enzyme concentration was adjusted so that no more than 20% hydrolysis of the substrate defined below occurred in control wells without compound, during the incubation. For PDE3, PDE4B and PDE4D assays, [5′,8-^3H]Adenosine 3′,5′-cyclic phosphate (Amersham Pharmacia Biotech, code TRK.559; or Amersham Biosciences UK Ltd, Pollards Wood, Chalfont St Giles, Buckinghamshire HP8 4SP, UK) was added to give 0.05 uCi per well and ˜10 nM final concentration. For the PDE5 and PDE6 assay [8-^3H]Guanosine 3′,5′-cyclic phosphate (Amersham Pharmacia Biotech, code TRK.392) was added to give 0.05 uCi per well and ˜36 nM final concentration. Plates, preferably containing approx. 100 ul volume of assay mixture, were mixed on an orbital shaker for 5 minutes and incubated at ambient temperature for 1 hour. Phosphodiesterase SPA beads (Amersham Pharmacia Biotech, code RPNQ 0150) were added (˜1 mg per well) to terminate the assay. Plates were sealed and shaken and allowed to stand at ambient temperature for 35 minutes to 1 hour (preferably 35 minutes) to allow the beads to settle. Bound radioactive product was measured using a WALLAC TRILUX 1450 Microbeta scintillation counter. For inhibition curves, 10 concentrations ([…]) of each compound were assayed. Curves were analysed using ActivityBase and XLfit (ID Businesss Solutions Limited, 2 Ocean Court, Surrey Research Park, Guildford, Surrey GU2 7QB, United Kindgom) Results were expressed as pIC50 values.
The ability of compounds to inhibit catalytic activity at PDE4B (human recombinant) or PDE4D (human recombinant) was determined by IMAP Fluorescence Polarisation (FP) assay (IAP Explorer kit, available from Molecular Devices Corporation, Sunnydale, Calif., USA; Molecular Devices code: R8062) in 384-well format. The IMAP FP assay is able to measure PDE activity in an homogenous, non-radioactive assay format. The FP assay uses the ability of immobilised trivalent metal cations, coated onto nanoparticles (tiny beads), to bind the phosphate group of Fl-AMP that is produced on the hydrolysis of fluorescein-labelled (Fl) cyclic adenosine mono-phosphate (Fl-cAMP) to the non-cyclic Fl-AMP form. […] Binding of Fl-AMP product to the beads (coated with the immobilised trivalent cations) slows the rotation of the bound Fl-AMP and leads to an increase in the fluorescence polarisation ratio of parallel to perpendicular light. Inhibition of the PDE reduces/inhibits this signal increase. […]

T1 sequence (Q07343 1-564 isoform Q07343-2): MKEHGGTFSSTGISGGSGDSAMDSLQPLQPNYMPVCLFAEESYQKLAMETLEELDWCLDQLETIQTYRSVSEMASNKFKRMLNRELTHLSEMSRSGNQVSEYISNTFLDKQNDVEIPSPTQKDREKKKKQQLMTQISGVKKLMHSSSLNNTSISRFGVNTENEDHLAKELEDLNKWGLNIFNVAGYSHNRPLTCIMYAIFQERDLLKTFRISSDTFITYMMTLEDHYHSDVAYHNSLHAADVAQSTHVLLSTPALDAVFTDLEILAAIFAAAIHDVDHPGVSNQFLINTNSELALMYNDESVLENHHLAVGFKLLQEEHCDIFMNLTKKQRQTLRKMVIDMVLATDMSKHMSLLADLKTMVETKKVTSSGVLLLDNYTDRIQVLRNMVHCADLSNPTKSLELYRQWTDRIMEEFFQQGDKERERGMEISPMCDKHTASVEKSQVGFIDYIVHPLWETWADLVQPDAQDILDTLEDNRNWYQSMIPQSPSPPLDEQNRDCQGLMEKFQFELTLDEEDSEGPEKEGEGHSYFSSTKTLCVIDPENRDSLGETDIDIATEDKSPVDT

| SMILES | IC50 [nM] |
| --- | --- |
| CCn1ncc2c(NC3CCCC3)c(-c3nnc(CS(C)(=O)=O)o3)cnc21 [Example 2, N-Cyclopentyl-1-ethyl-5-{5-[(methylsulfonyl)methyl]-1,3,4-oxadiazol-2-yl}-1H-pyrazolo[3,4-b]pyridin-4-amine] | 0.794 to 31.6 |
| CCn1ncc2c(NC3CCCC3)c(-c3nnc(C(C)C)s3)cnc21 [Example 6, N-Cyclopentyl-1-ethyl-5-(5-isopropyl-1,3,4-thiadiazol-2-yl)-1H-pyrazolo[3,4-b]pyridin-4-amine] | 7.94 |
| CCn1ncc2c(Nc3ccc(F)cc3)c(-c3nc(C)no3)cnc21 [Example 7, 1-Ethyl-N-(4-fluorophenyl)-5-(3-methyl-1,2,4-oxadiazol-5-yl)-1H-pyrazolo[3,4-b]pyridin-4-amine] | 63.1 to 251 |
| CCn1ncc2c(NC3CCCCC3)c(-c3nnc(C(C)C)o3)cnc21 [Example 10, N-Cyclohexyl-1-ethyl-5-(5-isopropyl-1,3,4-oxadiazol-2-yl)-1H-pyrazolo[3,4-b]pyridin-4-amine] | 6.31 |
| CCn1ncc2c(NCC(C)C)c(-c3nnc(C)o3)cnc21 [Example 12, 1-Ethyl-N-isobutyl-5-(5-methyl-1,3,4-oxadiazol-2-yl)-1H-pyrazolo[3,4-b]pyridin-4-amine] | 12.6 |
| CCn1ncc2c(NC3CCCCC3)c(-c3nnc(CS(C)(=O)=O)o3)cnc21 [Example 24, N-Cyclohexyl-1-ethyl-5-{5-[(methylsulfonyl)methyl]-1,3,4-oxadiazol-2-yl}-1H-pyrazolo[3,4-b]pyridin-4-amine] | 6.31 |
| CCn1ncc2c(N[C@@H](C)C(C)C)c(-c3nnc(CS(C)(=O)=O)o3)cnc21 [Example 26, N-[(1S)-1,2-dimethylpropyl]-1-ethyl-5-{5-[(methylsulfonyl)methyl]-1,3,4-oxadiazol-2-yl}-1H-pyrazolo[3,4-b]pyridin-4-amine] | 0.794 to 31.6 |
| CCn1ncc2c(NC3CCOCC3)c(-c3nnc(C4(C)COC4)o3)cnc21 [Example 34, 1-Ethyl-5-[5-(3-methyloxetan-3-yl)-1,3,4-oxadiazol-2-yl]-N-(tetrahydro-2H-pyran-4-yl)-1H-pyrazolo[3,4-b]pyridin-4-amine] | 0.794 to 31.6 |
| CCn1ncc2c(NC3CCOCC3)c(-c3nnc(CN4CCOCC4)o3)cnc21 [Example 39, 1-Ethyl-5-[5-(morpholin-4-ylmethyl)-1,3,4-oxadiazol-2-yl]-N-(tetrahydro-2H-pyran-4-yl)-1H-pyrazolo[3,4-b]pyridin-4-amine] | 0.794 to 31.6 |
| CCn1ncc2c(NC3CCOCC3)c(C3=NC(C)CO3)cnc21 (stereo not shown) [Example 42, 1-Ethyl-5-(4-methyl-4,5-dihydro-1,3-oxazol-2-yl)-N-(tetrahydro-2H-pyran-4-yl)-1H-pyrazolo[3,4-b]pyridin-4-amine] | 5.01 |
| CCCn1ncc2c(NC3CCOCC3)c(-c3nnc(C)o3)cnc21 [Example 43, 1-n-Propyl-5-(5-methyl-1,3,4-oxadiazol-2-yl)-N-(tetrahydro-2H-pyran-4-yl)-1H-pyrazolo[3,4-b]pyridin-4-amine] | 63.1 to 251 |
| CCn1ncc2c(NC3CCOCC3)c(-c3nnc(C4CCCO4)o3)cnc21 (stereo not shown) [Example 44, 1-Ethyl-5-[5-(tetrahydrofuran-2-yl)-1,3,4-oxadiazol-2-yl]-N-(tetrahydro-2H-pyran-4-yl)-1H-pyrazolo[3,4-b]pyridin-4-amine] | 0.794 to 31.6 |
| CCn1ncc2c(NC3CCN(C(C)=O)CC3)c(-c3nc(CN4CCOCC4)no3)cnc21 [Example 48, N-(1-Acetylpiperidin-4-yl)-1-ethyl-5-[3-(morpholin-4-ylmethyl)-1,2,4-oxadiazol-5-yl]-1H-pyrazolo[3,4-b]pyridin-4-amine] | 63.1 to 251 |
| CCn1ncc2c(NC3CCOCC3)c(C3=N[C@@H](c4ccccc4)CO3)cnc21 [Example 50, 1-Ethyl-5-[(4S)-4-phenyl-4,5-dihydro-1,3-oxazol-2-yl]-N-(tetrahydro-2H-pyran-4-yl)-1H-pyrazolo[3,4-b]pyridin-4-amine] | 0.794 to 31.6 |
| CCn1ncc2c(NC3CCOCC3)c(-c3nc(C(=O)N4CCOCC4)co3)cnc21 [Example 59, 1-Ethyl-5-[4-(4-morpholinylcarbonyl)-1,3-oxazol-2-yl]-N-(tetrahydro-2H-pyran-4-yl)-1H-pyrazolo[3,4-b]pyridin-4-amine] | 0.794 to 31.6 |
| CCn1ncc2c(N(C)C3CCOCC3)c(-c3nnc(C)o3)cnc21 [Example 60, 1-Ethyl-N-methyl-5-(5-methyl-1,3,4-oxadiazol-2-yl)-N-(tetrahydro-2H-pyran-4-yl)-1H-pyrazolo[3,4-b]pyridin-4-amine] | 63.1 to 251 |
| CCn1ncc2c(N[C@H]3CC[C@H](O)CC3)c(-c3nnc(C)o3)cnc21 [Example 61, trans-4-{[1-Ethyl-5-(5-methyl-1,3,4-oxadiazol-2-yl)-1H-pyrazolo[3,4-b]pyridin-4-yl]amino}cyclohexanol] | 63.1 to 251 |
| CCn1ncc2c(NC3CCCOC3)c(-c3nnc(C)o3)cnc21 (stereo not shown) [Example 62, 1-Ethyl-5-(5-methyl-1,3,4-oxadiazol-2-yl)-N-(tetrahydro-2H-pyran-3-yl)-1H-pyrazolo[3,4-b]pyridin-4-amine] | 0.794 to 31.6 |
| CCn1ncc2c(NC3CCC(=O)CC3)c(-c3nnc(C)o3)cnc21 [Example 63, 4-{[1-Ethyl-5-(5-methyl-1,3,4-oxadiazol-2-yl)-1H-pyrazolo[3,4-b]pyridin-4-yl]amino}cyclohexanone] | 0.794 to 31.6 |
| CCCN(c1c(-c2nnc(C)o2)cnc2c1cnn2CC)C1CCOCC1 [Example 64, 1-Ethyl-5-(5-methyl-1,3,4-oxadiazol-2-yl)-N-n-propyl-N-(tetrahydro-2H-pyran-4-yl)-1H-pyrazolo[3,4-b]pyridin-4-amine] | 63.1 to 251 |
| CCn1ncc2c(NC3CCOCC3)c(-c3nnc(C4CCOCC4)o3)c(C)nc21 [Example 66, 1-Ethyl-6-methyl-N-(tetrahydro-2H-pyran-4-yl)-5-[5-(tetrahydro-2H-pyran-4-yl)-1,3,4-oxadiazol-2-yl]-1H-pyrazolo[3,4-b]pyridin-4-amine] | 0.794 to 31.6 |
| CCn1ncc2c(NC3CCOCC3)c(-c3nnc(Cc4nonc4C)o3)cnc21 [Example 71, 1-Ethyl-5-{5-[(4-methyl-1,2,5-oxadiazol-3-yl)methyl]-1,3,4-oxadiazol-2-yl}-N-(tetrahydro-2H-pyran-4-yl)-1H-pyrazolo[3,4-b]pyridin-4-amine] | 0.794 to 31.6 |
| CCn1ncc2c(NC3CCOCC3)c(-c3nnc(CN(C)C(C)=O)o3)cnc21 [Example 76, N-({5-[1-Ethyl-4-(tetrahydro-2H-pyran-4-ylamino)-1H-pyrazolo[3,4-b]pyridin-5-yl]-1,3,4-oxadiazol-2-yl}methyl)-N-methylacetamide] | 0.794 to 31.6 |
| CCn1ncc2c(NC3CCOCC3)c(-c3nnc(CC4CCOCC4)o3)cnc21 [Example 77, 1-Ethyl-N-(tetrahydro-2H-pyran-4-yl)-5-[5-(tetrahydro-2H-pyran-4-ylmethyl)-1,3,4-oxadiazol-2-yl]-1H-pyrazolo[3,4-b]pyridin-4-amine] | 0.794 to 31.6 |
| CCn1ncc2c(NC3CCOCC3)c(-c3nc(CC(=O)N4CCCC4)no3)cnc21 [Example 84, 1-Ethyl-5-{3-[2-oxo-2-(1-pyrrolidinyl)ethyl]-1,2,4-oxadiazol-5-yl}-N-(tetrahydro-2H-pyran-4-yl)-1H-pyrazolo[3,4-b]pyridin-4-amine] | 0.794 to 31.6 |
